Biological target: T1, hOAT1 (Homo sapiens, UniProt Q4U2R8)
T1 construct: expressed in transfected cells; host or cells: HEK-293 (293) cells, pEBTetD plasmid, doxycycline-induced
T1 sequence (Q4U2R8 1-563): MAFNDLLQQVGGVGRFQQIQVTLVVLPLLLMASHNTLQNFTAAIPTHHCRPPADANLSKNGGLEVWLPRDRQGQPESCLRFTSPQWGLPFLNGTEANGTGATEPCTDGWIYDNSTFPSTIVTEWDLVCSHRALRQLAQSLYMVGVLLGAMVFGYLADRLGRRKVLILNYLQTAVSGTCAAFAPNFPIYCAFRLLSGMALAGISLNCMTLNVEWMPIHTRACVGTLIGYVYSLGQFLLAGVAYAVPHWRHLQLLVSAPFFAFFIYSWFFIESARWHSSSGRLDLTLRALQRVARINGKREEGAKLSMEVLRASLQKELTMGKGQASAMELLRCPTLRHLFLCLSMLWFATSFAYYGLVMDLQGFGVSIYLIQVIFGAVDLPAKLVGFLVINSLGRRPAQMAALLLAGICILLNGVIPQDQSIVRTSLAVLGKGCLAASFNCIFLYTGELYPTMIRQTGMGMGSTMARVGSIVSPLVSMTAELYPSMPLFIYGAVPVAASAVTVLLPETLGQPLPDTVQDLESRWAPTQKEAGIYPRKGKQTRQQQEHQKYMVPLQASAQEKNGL
Assay: Substrate assessment: iohexol uptake in 293 cells expressing hOAT1 vs control
Type: in vitro ADME
Conditions: 10 μM iohexol, median (95% CI)
Text: We characterized the inhibitory potential of iohexol on major drug transporters recommended by regulatory agencies, which were previously assessed in a clinical transporter phenotyping cocktail study. These transporters include hOAT1, hOAT3, hOCT1, hOCT2, hMATE1, hMATE2K, human organic anion transporter polypeptides (hOATP)1B1, hOATP1B3, and human multidrug resistance protein (hMDR)1. Additionally, we investigated whether iohexol is a substrate for any of the renal transporters among these, including hOAT1/3, hOCT1/2, and hMATE1/2K. Cell‐based uptake assays were used to assess the activities of hOAT1/3, hOCT1/2, hMATE1/2K, and hOATP1B1/1B3. Inside‐out membrane vesicle uptake assays were used to evaluate the activity of hMDR1.
For substrate assessments, iohexol was incubated with stably transfected HEK‐293 cells expressing one of the following transporters: hOAT1, hOAT3, hOCT1, hOCT2, hMATE1, or hMATE2K, as well as with control cells lacking transporter expression. Stably transfected cell lines containing pEBTetD plasmids with wild‐type human transporter cDNAs were generated as previously described. Transporter expression was induced by adding 1 μg/mL doxycycline to the growth medium for at least 20 h. Iohexol would be considered a substrate for these transporters if: (1) the ratio of iohexol uptake in cells expressing the transporter to that in control cells was ≥ 2, and (2) a known inhibitor of the transporter reduced iohexol uptake to ≤ 50% at concentrations ≥ 10 times its inhibition constant or half‐maximal inhibitory concentration.
Uptake assays were performed using stably transfected 293 cells, with or without the expression of one of the following transporters: hOAT1, hOAT3, hOCT1, hOCT2, hMATE1, or hMATE2K, as previously described.^1
For the substrate assessment, cells were incubated with 10 µM iohexol for 10 minutes and 30 minutes for each transporter. Inhibition assays were performed using specific standard substrates for each transporter: 10 µM para-aminohippuric acid (PAH) for hOAT1, 3 µM estrone-3-sulfate (E3S) for hOAT3, 50 µM metformin for hOCT1, 5 µM metformin for hOCT2, and 3 µM 1-methyl-4-phenylpyridinium (MPP+) for hMATE1 and hMATE2K. […]
R version 4.2.1 (R Foundation for Statistical Computing, Vienna, Austria) was used for statistical evaluations and data visualization. The data analysis approach for the in vitro study was detailed by Hsin CH et al..^1 In brief, for transport assays, the initial uptake rate was calculated by normalizing the substrate concentration to both the protein concentration and the incubation time for each dish or well. The transporter-mediated uptake rate (net uptake) was determined by performing an element-wise subtraction of uptake rates from different conditions. […]

## CC(=O)N(CC(O)CO)c1c(I)c(C(=O)NCC(O)CO)c(I)c(C(=O)NCC(O)CO)c1I (stereo not shown) [iohexol]
10 minutes
  Differences in intracellular accumulation (expression on minus off): -0.39 (-3.4 to 1.1) pmol/mg protein
  Uptake ratio (transporter-expressing vs non-expressing cells): 0.91 (0.75 to 1.2)
30 minutes
  Differences in intracellular accumulation (expression on minus off): 0.98 (-0.62 to 2.1) pmol/mg protein
  Uptake ratio (transporter-expressing vs non-expressing cells): 1.1 (0.95 to 1.3)
